Measured values from ChEMBL document CHEMBL5725494, “S1P receptors modulators and their use thereof” (2017).
pEC50: −log10 of the molar value.

Key:
[1] = target: Sphingosine 1-phosphate receptor 1 (Homo sapiens, UniProt P21453); assay: (§1) S1P Assay: Selected Compounds of the Examples were evaluated at Millipore Corporation, USA, using S1P1 receptor; [35S]-GTPgamaS binding assay. A [35S]-GTPgamaS binding assay at Millipore was conducted by GPCR Profiler¿ Custom Service Laboratory, Temecula, Calif., Millipore, Inc. to monitor dose-dependent agonist selectivity for selected Examples against the S1P1 receptors. The assay was completed with sample compounds subjected to an eight-point, four-fold dose response curve with starting concentration of 10 μM. Selectivity was determined upon initial addition of compounds followed by a 30 minute incubation at 30° C. Following compound incubation, bounded [35S]-GTPgamaS was determined by filtration and scintillation counting. Independently, selected compounds were evaluated for S1P1 and S1P3 agonistic activity. The S1P1 assay system was GTPgama-S35 binding in membranes from CHO K1 cells, expressing S1P1 human receptor. The S1P3 assay system was calcium mobilization in CHO K1 cells expressing S1P3 human receptor. There was no significant background response to S1P in the CHO K1 cells with either assay. Compounds were tested initially at a concentration of 10 μM.; assay type: cell membranes
[2] = target: Sphingosine 1-phosphate receptor 3 (Homo sapiens, UniProt Q99500); assay: as §1; assay type: cell membranes
Sphingosine 1-phosphate receptor 3, sequence (Q99500 whole entry): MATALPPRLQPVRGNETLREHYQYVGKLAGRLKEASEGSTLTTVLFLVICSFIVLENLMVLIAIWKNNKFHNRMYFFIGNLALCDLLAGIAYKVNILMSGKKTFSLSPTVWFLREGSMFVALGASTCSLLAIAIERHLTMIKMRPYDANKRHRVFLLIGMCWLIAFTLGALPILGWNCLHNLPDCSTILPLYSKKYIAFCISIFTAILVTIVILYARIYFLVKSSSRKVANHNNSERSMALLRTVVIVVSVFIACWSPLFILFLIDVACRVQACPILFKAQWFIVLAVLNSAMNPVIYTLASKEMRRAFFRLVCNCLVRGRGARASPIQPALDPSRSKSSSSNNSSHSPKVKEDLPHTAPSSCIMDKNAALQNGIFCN

Sphingosine 1-phosphate receptor 1, sequence (P21453 whole entry): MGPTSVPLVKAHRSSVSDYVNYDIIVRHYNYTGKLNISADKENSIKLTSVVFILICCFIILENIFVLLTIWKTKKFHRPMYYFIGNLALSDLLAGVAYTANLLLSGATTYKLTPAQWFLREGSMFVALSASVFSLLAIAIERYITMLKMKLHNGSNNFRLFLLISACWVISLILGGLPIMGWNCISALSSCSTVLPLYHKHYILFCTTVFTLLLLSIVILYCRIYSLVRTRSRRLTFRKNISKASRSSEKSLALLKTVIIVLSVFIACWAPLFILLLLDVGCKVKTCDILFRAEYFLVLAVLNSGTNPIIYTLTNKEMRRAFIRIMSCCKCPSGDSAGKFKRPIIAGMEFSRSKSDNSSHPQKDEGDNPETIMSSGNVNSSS

Structure (SMILES)	pEC50 [1]	pEC50 [2]
CCOc1ccc(-c2nc(-c3ccc4oc(C(N)(CO)CO)cc4c3)no2)cc1OCC	7.24	6.42
Cc1ccc(/C=C/c2nc(-c3ccc4oc(C(N)(CO)CO)cc4c3)no2)cc1	5.74	–
CC(C)N(Cc1ccc(-c2ccc(CN3CC(C(=O)O)C3)cc2)cc1)c1ccc(F)cc1	6.22	–

Further compounds by rising pEC50 [1], results first:

pEC50 [1]	pEC50 [2]	Structure (SMILES)
6.34	–	CCCCCCCCc1ccc(NC(=O)NCCC(=O)O)cc1
7.22	–	COc1ccc(COc2ccc(CN3CC(C(=O)O)C3)cc2)cc1C12CC3CC(CC(C3)C1)C2
